Patent US11952584B2, “Functional peptides having antimicrobial activity against phytopathogenic microorganisms” (TOYOTA JIDOSHA KABUSHIKI KAISHA, priority 2019, dated 2024)
Like-named read-outs stand apart in the source and are kept apart here.

Columns and labels:
Assay type in all cases: cell-based
Botrytis cinerea = settings: 25° C., 1 day or 2 days
[1] = tested on: Colletotrichum destructivum; settings: 25° C., 1 day or 2 days
[2] = tested on: Colletotrichum orbiculare; settings: 25° C., 1 day or 2 days
Fusarium oxysporum = tested on: Fusarium oxysporum
Pyricularia oryzae = settings: 25° C., 1 day or 2 days

IWKGK (listed as Solanum lycopersicum) [TsORF18-2-5aa-17]
0: Plate antimicrobial activity test Botrytis cinerea (level) (Botrytis cinerea; peptide 1 μM) | Plate antimicrobial activity test Botrytis cinerea (level) (Botrytis cinerea; peptide 10 μM) | Plate antimicrobial activity test Botrytis cinerea (level) (Botrytis cinerea; peptide 100 μM) | Plate antimicrobial activity test Colletotrichum destructivum (level) ([1]; peptide 1 μM) | Plate antimicrobial activity test Colletotrichum destructivum (level) ([1]; peptide 10 μM) | Plate antimicrobial activity test Colletotrichum destructivum (level) ([1]; peptide 100 μM) | Plate antimicrobial activity test Collectotrichum orbiculare (level) ([2]; peptide 1 μM) | Plate antimicrobial activity test Collectotrichum orbiculare (level) ([2]; peptide 10 μM) | Plate antimicrobial activity test Collectotrichum orbiculare (level) ([2]; peptide 100 μM) | Plate antimicrobial activity test Fusarium oxysporum (level) (Fusarium oxysporum) | Plate antimicrobial activity test Pyricularia oryzae (level) (Pyricularia oryzae; peptide 1 μM) | Plate antimicrobial activity test Pyricularia oryzae (level) (Pyricularia oryzae; peptide 10 μM) | Plate antimicrobial activity test Pyricularia oryzae (level) (Pyricularia oryzae; peptide 100 μM)

KGKTS (listed as Solanum lycopersicum) [TsORF18-2-5aa-19]
0: Plate antimicrobial activity test Botrytis cinerea (level) (Botrytis cinerea; peptide 1 μM) | Plate antimicrobial activity test Botrytis cinerea (level) (Botrytis cinerea; peptide 10 μM) | Plate antimicrobial activity test Botrytis cinerea (level) (Botrytis cinerea; peptide 100 μM) | Plate antimicrobial activity test Colletotrichum destructivum (level) ([1]; peptide 1 μM) | Plate antimicrobial activity test Colletotrichum destructivum (level) ([1]; peptide 10 μM) | Plate antimicrobial activity test Colletotrichum destructivum (level) ([1]; peptide 100 μM) | Plate antimicrobial activity test Collectotrichum orbiculare (level) ([2]; peptide 1 μM) | Plate antimicrobial activity test Collectotrichum orbiculare (level) ([2]; peptide 10 μM) | Plate antimicrobial activity test Collectotrichum orbiculare (level) ([2]; peptide 100 μM) | Plate antimicrobial activity test Fusarium oxysporum (level) (Fusarium oxysporum) | Plate antimicrobial activity test Pyricularia oryzae (level) (Pyricularia oryzae; peptide 1 μM) | Plate antimicrobial activity test Pyricularia oryzae (level) (Pyricularia oryzae; peptide 10 μM) | Plate antimicrobial activity test Pyricularia oryzae (level) (Pyricularia oryzae; peptide 100 μM)

PAFSE (listed as Solanum lycopersicum) [TsORF18-2-5aa-5]
0: Plate antimicrobial activity test Botrytis cinerea (level) (Botrytis cinerea; peptide 1 μM) | Plate antimicrobial activity test Botrytis cinerea (level) (Botrytis cinerea; peptide 10 μM) | Plate antimicrobial activity test Botrytis cinerea (level) (Botrytis cinerea; peptide 100 μM) | Plate antimicrobial activity test Colletotrichum destructivum (level) ([1]; peptide 1 μM) | Plate antimicrobial activity test Colletotrichum destructivum (level) ([1]; peptide 10 μM) | Plate antimicrobial activity test Colletotrichum destructivum (level) ([1]; peptide 100 μM) | Plate antimicrobial activity test Collectotrichum orbiculare (level) ([2]; peptide 1 μM) | Plate antimicrobial activity test Collectotrichum orbiculare (level) ([2]; peptide 10 μM) | Plate antimicrobial activity test Collectotrichum orbiculare (level) ([2]; peptide 100 μM) | Plate antimicrobial activity test Fusarium oxysporum (level) (Fusarium oxysporum) | Plate antimicrobial activity test Pyricularia oryzae (level) (Pyricularia oryzae; peptide 1 μM) | Plate antimicrobial activity test Pyricularia oryzae (level) (Pyricularia oryzae; peptide 10 μM) | Plate antimicrobial activity test Pyricularia oryzae (level) (Pyricularia oryzae; peptide 100 μM)

PAFSERTR (listed as Solanum lycopersicum) [TsORF18-2-8aa-5]
0: Plate antimicrobial activity test Botrytis cinerea (level) (Botrytis cinerea; peptide 1 μM) | Plate antimicrobial activity test Botrytis cinerea (level) (Botrytis cinerea; peptide 10 μM) | Plate antimicrobial activity test Botrytis cinerea (level) (Botrytis cinerea; peptide 100 μM) | Plate antimicrobial activity test Colletotrichum destructivum (level) ([1]; peptide 1 μM) | Plate antimicrobial activity test Colletotrichum destructivum (level) ([1]; peptide 10 μM) | Plate antimicrobial activity test Colletotrichum destructivum (level) ([1]; peptide 100 μM) | Plate antimicrobial activity test Collectotrichum orbiculare (level) ([2]; peptide 1 μM) | Plate antimicrobial activity test Collectotrichum orbiculare (level) ([2]; peptide 10 μM) | Plate antimicrobial activity test Collectotrichum orbiculare (level) ([2]; peptide 100 μM) | Plate antimicrobial activity test Fusarium oxysporum (level) (Fusarium oxysporum) | Plate antimicrobial activity test Pyricularia oryzae (level) (Pyricularia oryzae; peptide 1 μM) | Plate antimicrobial activity test Pyricularia oryzae (level) (Pyricularia oryzae; peptide 10 μM) | Plate antimicrobial activity test Pyricularia oryzae (level) (Pyricularia oryzae; peptide 100 μM)
